This assay has as its system NCI-H460 cells. Description: Antiproliferative activity on NCI-H460 cell line (CellTiter-Glo). Type of assay: cell-based. The note with it: Homo sapiens; NCI-H460 (lung cancer, high AKR1C3); 2 hours with drug, then 70 hours drug-free. The method, then:
RPMI-1640 medium and penicillin/streptomycin antibiotics were purchased from Vicente, and fetal bovine serum was purchased from Biosera. CellTiter-Glo (Cell Viability Chemiluminescence Detection Reagent) reagent was purchased from Promega. The NCI-H460 cell line was purchased from Nanjing Kebai Biotechnology Co., Ltd. Nivo Multimode Plate Reader (PerkinElmer).
NCI-H460 cells (lung cancer) were seeded in a 96-well plate, 80 μL of cell suspension per well, which contained 4000 NCI-H460 cells. The cell plate was incubated overnight in a carbon dioxide incubator. The compound to be tested was diluted 5-fold to the ninth concentration with a multi-channel pipette, that is, the compound to be tested was diluted from 2 mM to 5.2 nM, and an experiment for the sample assayed in duplicate was set up. 78 μL of medium was added to the middle plate, and 2 μL of the gradient-diluted compound per well was transferred to the middle plate according to the corresponding position, then 20 μL per well was transferred to the cell plate after mixing. […] Another cell plate was prepared, and the signal value was read as the maximum value (Max value in the following equation) on the day of drug addition to participate in data analysis. […] The multimode plate reader was used for readings. […]. […]
In general terms: ATP-based viability assays read luminescence as a measure of living cells.

Each structure is given as a SMILES string.

The term IC50 denotes the concentration that gives 50% inhibition. With `O=[N+]([O-])c1cc2c(cc1Oc1cccnc1F)C(OP(=O)(N1CC1)N1CC1)COC2` (centres unmarked) [Compound 1], the midpoint of inhibition, the IC50, lay at 3.8 nM. Turning to `O=[N+]([O-])c1cc2c(cc1Oc1ccccc1F)C(OP(=O)(N1CC1)N1CC1)COC2` (centres unmarked) [Compound 2], the IC50 was found to be 21.6 nM.

The values are drawn from patent publication US12435101B2, “Isochroman compound” (Zhejiang Yangli Pharmaceutical Technology Co., Ltd., priority 2020, dated 2025).
